Test results as given in patent US12428369B2, “Crystal form of aromatic vinyl derivatives, and preparation method therefor and use thereof” (GUANGZHOU MAXINOVEL PHARMACEUTICALS CO., LTD., priority 2020, dated 2025).
In brackets after ≈: the same amount, converted by molar mass.

How the values were obtained:
Assay type in all cases: physicochemical
[1] = Dynamic vapor sorption (DVS) analysis; conditions: 25° C.
Description: (§1) The hygroscopic characteristics of the sample were tested when the humidity changed from 0% RH to 95% RH, and the dehumidifying characteristics of the sample were tested when the humidity changed from 95% RH to 0% RH. The humidity change in each step size was 5% RH, the equilibrium standard was that the weight change rate within 10 min was less than 0.01%/min, and the longest equilibrium time was 2 hours.
as §1, with “5” for “10”

[2] = Equilibrium solubility and dissolution rate in water, SGF, FaSSIF, FeSSIF; conditions: 37° C.
Description: To further study whether the equilibrium solubility and dissolution rate of crystal forms A, B and C are different in pure water and physiological related media in vivo, the equilibrium solubility and dissolution rate of […] crystal forms in water, simulated gastric fluid (SGF), fasted-state simulated intestinal fluid (FaSSIF) and fed state simulated intestinal fluid (FeSSIF) were tested respectively.

[3] = Solid-state stability: content and related substances by HPLC
Description: (§2) The samples of crystal forms A, B, and C were weighed and added to a 20 mL colorless transparent glass bottle, respectively, and the sample bottles were respectively placed under the corresponding influencing factors and acceleration conditions (the sample bottles under humidity conditions were sealed with tin foil and placed with holes, and the other samples were covered tightly and placed), taken out after being placed for 1 week and 2 weeks respectively, and the sample content and related substances under various conditions were detected by HPLC; according to the same method as above, samples were respectively weighed and placed under a corresponding influencing factor and accelerated condition, and were taken out after being placed for 2 weeks for observing the appearance and XRPD characterization of each sample, and the physical stability of each crystal form was examined, and the test methods are detailed in table 14 and table 15; at the same time, 2 samples of the crystal forms A, B, and C of the compound as shown in formula I were respectively weighed accurately into 20 mL colorless transparent glass bottles and covered tightly, placed in a −20° C. refrigerator, and taken out as a standard for HPLC analysis at 2 weeks, and the test results are detailed in table 16 and table 17.

[4] = Solid-state stability: appearance and crystal form (XRPD)
Description: as §2

[5] = Crystal form conversion on heating; conditions: heated to 200° C.
Description: 100 mg of the compound as shown in formula I sample was weighed and added to a bottle, then 20 times the volume of methanol was added to the bottle, and the mixture was magnetic stirred and slurried for 14 days at room temperature.
100 mg of the compound as shown in formula I sample was weighed and added to a glass bottle, and 100 times the volume of ethyl acetate (EA) and 20 times the volume of methanol (MeOH) were added to the bottle, and the sample was placed on a magnetic heating stirrer. The mixture was magnetic stirred to fully dissolve at a water bath of 50° C., filtered and the filtrate was slowly cooled to room temperature at a rate of 6° C./h, overnight, filtered under reduced pressure, and the solid was dried at 70° C. for 4 hours.
100 mg of the compound as shown in formula I sample was weighed and added to a bottle, then 30 times the volume of acetonitrile (ACN) (sample mass (g)×volume multiples) was added to the bottle, and the mixture was magnetic stirred and slurried for 2 days at room temperature, filtered under reduced pressure, and the solid was collected, and dried at 40° C. for 4 hours. The solid after drying was characterized, and the crystal form was defined as a crystal form VIII, and the XRPD pattern of the crystal form VIII is as shown in FIG. 20. […]

[6] = Acceleration (40° C./75% RH), 1 week
[7] = Acceleration (40° C./75% RH), 2 weeks
[8] = High humidity (92.5% RH), 1 week
[9] = High humidity (92.5% RH), 2 weeks
[10] = High temperature (60° C.), 1 week
[11] = High temperature (60° C.), 2 weeks
[12] = illumination (4500 LuX), 1 week
[13] = illumination (4500 LuX), 2 weeks
[14] = Illumination (4500 Lux), 2 weeks

Cc1c(/C=C/c2cc(CN[C@@](C)(CO)C(=O)O)ccc2C(F)(F)F)cccc1-c1ccccc1 [Crystal form C]
hygroscopicity ([1]; assessment in words): hygroscopic
weight gain ([1]; from 0% RH to 95% RH): 4.767%
Solubility ([2]; FaSSIF (rows r12-r14), 0.5 hours, listed as C): 9.1 µg/mL (≈ 19.4 µM)
Solubility ([2]; FaSSIF (rows r12-r14), 2 hours, listed as C): 2.2 µg/mL (≈ 4.69 µM)
Solubility ([2]; FaSSIF (rows r12-r14), 24 hours, listed as C): 4.5 µg/mL (≈ 9.58 µM)
Solubility ([2]; FaSSIF as printed (second set, rows r15-r17), 0.5 hours, listed as C): 181.7 µg/mL (≈ 387 µM)
Solubility ([2]; FaSSIF as printed (second set, rows r15-r17), 2 hours, listed as C): 174.3 µg/mL (≈ 371 µM)
Solubility ([2]; FaSSIF as printed (second set, rows r15-r17), 24 hours, listed as C): 166.6 µg/mL (≈ 355 µM)
Solubility ([2]; SGF, 0.5 hours): 0.3 µg/mL (≈ 0.639 µM)
Solubility ([2]; SGF, 2 hours): 0.2 µg/mL (≈ 0.426 µM)
Solubility ([2]; SGF, 24 hours): 0.5 µg/mL (≈ 1.06 µM)
Solubility ([2]; Water, 0.5 hours): 1.7 µg/mL (≈ 3.62 µM)
Solubility ([2]; Water, 2 hours): 6.5 µg/mL (≈ 13.8 µM)
Solubility ([2]; Water, 24 hours): 1.8 µg/mL (≈ 3.83 µM)
Content [3, 6]: 100.06%
Total related substances [3, 6]: 0.00%
Content [3, 7]: 99.89%
Total related substances [3, 7]: 0.00%
Content ([3]; Control, −20° C., 2 weeks): 100.00%
Total related substances ([3]; Control, −20° C., 2 weeks): 0.00%
Content [3, 8]: 101.55%
Total related substances [3, 8]: 0.00%
Content [3, 9]: 100.59%
Total related substances [3, 9]: 0.00%
Content [3, 10]: 98.41%
Total related substances [3, 10]: 0.00%
Content [3, 11]: 100.18%
Total related substances [3, 11]: 0.00%
Content [3, 12]: 102.18%
Total related substances [3, 12]: 0.52%
Content [3, 13]: 98.64%
Total related substances [3, 13]: 1.56%
Appearance [4, 7]: Off-white
Crystal form (XRPD) after storage [4, 7]: Crystal form C
Appearance ([4]; Control, −20° C., 2 weeks): Off-white
Crystal form (XRPD) after storage ([4]; Control, −20° C., 2 weeks, listed as Crystal form C-Control): Crystal form C
Appearance [4, 9]: Off-white
Crystal form (XRPD) after storage [4, 9]: Crystal form C
Appearance [4, 11]: Off-white
Crystal form (XRPD) after storage [4, 11]: Crystal form C
Appearance [4, 14]: Off-white
Crystal form (XRPD) after storage [4, 14]: Crystal form C
physical stability ([4]; four storage conditions, 2 weeks (conclusion)): good
Appearance ([4]; high temperature, high humidity, illumination and acceleration, 2 weeks (conclusion)): off-white
crystal form after heating [5]: converted into the crystal form A
